Data taken from PMC12667198, “Menthol‐like cooling compounds, including (R)‐(‐)‐carvone, inhibit the human bitter taste receptors for saccharin and acesulfame K” (FEBS Open Bio, 2025).

molecular target: T1, TAS2R31 (Homo sapiens, UniProt P59538); assay: luminescence (mt-apoclytin II) Ca2+ assay, HEK293T; type: cell-based
T1 construct: pEAK10; transient in HEK293T with chimeric G protein Galpha16gust44 (and mt-apoclytin II reporter)
T1 sequence (P59538 1-309): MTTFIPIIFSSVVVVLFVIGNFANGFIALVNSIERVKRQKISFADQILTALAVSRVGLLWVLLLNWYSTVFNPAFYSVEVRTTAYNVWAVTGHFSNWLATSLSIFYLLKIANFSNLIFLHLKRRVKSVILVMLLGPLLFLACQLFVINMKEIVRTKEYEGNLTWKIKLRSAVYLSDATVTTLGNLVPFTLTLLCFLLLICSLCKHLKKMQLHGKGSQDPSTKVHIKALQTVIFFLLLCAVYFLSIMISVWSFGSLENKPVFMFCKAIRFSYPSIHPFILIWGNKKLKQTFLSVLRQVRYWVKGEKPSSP

| IC50 [µM] | Compound |
| --- | --- |
| 310 ± 58 | CC(C)[C@@H]1CC[C@@H](C)C[C@H]1O [(−)‐menthol] |
| 180 ± 19 | CC1=CC(=O)[C@@H](C(C)C)CC1 [(R)‐(‐)‐piperitone] |
| 220 ± 15 | CC(C)[C@H]1CC[C@H](C)C[C@@H]1O [(+)‐menthol] |
| 86 | C=C(C)[C@@H]1CC=C(C)C(=O)C1 [(R)‐(‐)‐carvone] |
| 290 ± 47 | CC(C)=C1CC[C@@H](C)CC1=O [(+)‐pulegone] |
| 570 ± 100 | CC(C)[C@@H]1CC[C@@H](C)CC1=O [menthone] |
